# Columns and labels:
# [1] = test system: minimal heat shock response element derived from the promoter region of the Hsp70B gene; assay: Heat shock reporter (EGFP) induction; type: cell-based; conditions: overnight exposure, FIG. 8
# Procedure: FIG. 8. Heat shock reporter induction measured by micro plate fluorimeter. Reporter cells stably transduced with a plasmid encoding enhanced green fluorescent protein (EGFP) under the control of a minimal heat shock response element were exposed to 2,3-dihydrowithaferin A-3β-O-sulfate (WA-SO4) or withaferin A (WA) at the indicated concentrations overnight. Relative fluorescence units (RFU) per well were determined as a measure of reporter activation. Each point represents the mean of nine determinations from three independent experiments.
# Immortalized mouse embryo fibroblasts derived from homozygous Hsf1 knockout mice or their wild type littermates were exposed overnight to equitoxic concentrations of 1 or the known heat shock-inducing Hsp90 inhibitor gendanamycin. Whole cell lysates were prepared in non-ionic detergent buffer and immunoblotted for relative levels of Hsp72, a highly inducible member of the Hsp70 family of molecular chaperones, using monoclonal antibody C92F3A-5 (StressMarq Biosciences, Victoria, BC). Reactivity was detected using peroxidase-conjugated secondary antibody and chemiluminescent detection. To evaluate the relative ability of compounds to induce a heat shock response at the transcriptional level, a reporter cell line was used as previously described (Turbyville, et al., J. Nat. Prod. (2006) 69: 178-184, incorporated herein by reference). […]
# [2] = molecular target: T1, Annexin 2 (Homo sapiens, UniProt P07355); assay: Pull-down with biotinylated withaferin A on NeutrAvidin beads with competition; type: binding; conditions: competition with WA 40 μM, 36 kDa band, FIG. 11
# T1 construct: incubated with pre-cleared whole cell extract that had been previously supplemented with WA (40 μM) or an equal volume of DMSO; endogenous in cells
# Procedure: FIG. 11. Stable and specific binding of Annexin 2 by withaferin A. Biotinylated withaferin A (WA) was captured on NeutrAvidin (NA)-coated beads and incubated with pre-cleared whole cell extract that had been previously supplemented with WA (40 μM) or an equal volume of DMSO. After low stringency washes, proteins bound to beads were eluted, size fractioned by SDS-PAGE, stained with Sypro Ruby, and visualized by UV illumination. The arrowhead indicates the position of a 36 kDa band effectively competed away by WA. Pre-clear lane: Proteins in whole cell extract that bound non-specifically to NA beads alone (no immobilized WA present) during pre-clearing incubation.
# [3] = test system: rat spinal cord motor neurons; assay: Neurotrophic factor (BDNF) deprivation-induced apoptosis of spinal cord motor neurons; type: cell-based; conditions: for reduction in cell death of motor neurons plated in the absence of BDNF: 24 hours, calcein-A
# Procedure: FIGS. 12A-12D. Neuronal survival and increase in neurite length as assessed by calcein-A staining which is taken up by viable neurons. (A) In the absence of BDNF (−BDNF) there is approximately 40% reduction in viable motor neurons compared to wells with BDNF present (+BDNF). Addition of withaferin A (WA) to the motor neuron cultures plated in the absence of BDNF results in a 50% reduction in cell death at 200 nM (0.2 μM) concentration of WA and a 75% reduction in cell death at 400 nM (0.4 μM) as assessed after 24 hours. […] (B) Graph showing percent protection. (C) Motor neuron viability assay of WA. (D) WA increases neurite length (normalized to control) measured at the end of the experiment.
# Neurotrophic factor deprivation-induced apoptosis of rat spinal cord motor neurons was used as a model system to evaluate neuroprotective activity of withaferin A. Primary spinal cord motor neurons were purified from E15 rats. These cells were dissociated from the ventral spinal cord, enriched by density gradient centrifugation, and purified by magnetic bead cell separation using an antibody against p75NTR which is expressed on the cell surface of motor neurons at this developmental age. The resulting cultures are ˜96% motor neurons as assessed by HB9 or islet-1 immunoreactivity and are virtually devoid of astrocytes or microglia. For viability experiments, the cells were plated at a low density (500 cells/well of a 96-well plate). In these cultures, motor neuron survival is highly dependent on trophic factors added to the culture media (in the form of BDNF, GDNF, or cardiotrophin-1), as ˜50% of the attached cells will undergo apoptosis when deprived of trophic factors (Oppenheim, R. W., et al., Nature, 360: 755-757; Henderson, C. E., et al., Science, 266: 1062-1064, 1994). BDNF was used as the trophic factor.
# Neuronal survival was assessed by staining with calcein-A, a fluorescent dye that is taken up by viable neurons. […]
# In some experiments, a fluorescence image of the entire well within a plate was captured using a flash cytometer (Trophos). […]
# [4] = test system: Ewing's sarcoma cells (CHP-100); conditions: 72 hours, MTT, FIG. 5
# From the text: Relative viable cell number was quantified by MTT assay. Results are presented as a percentage compared to wells exposed to DMSO alone. […] Points: mean of triplicate determinations; Error bars: s.d.
# T1 sequence (P07355 whole entry, species assumed): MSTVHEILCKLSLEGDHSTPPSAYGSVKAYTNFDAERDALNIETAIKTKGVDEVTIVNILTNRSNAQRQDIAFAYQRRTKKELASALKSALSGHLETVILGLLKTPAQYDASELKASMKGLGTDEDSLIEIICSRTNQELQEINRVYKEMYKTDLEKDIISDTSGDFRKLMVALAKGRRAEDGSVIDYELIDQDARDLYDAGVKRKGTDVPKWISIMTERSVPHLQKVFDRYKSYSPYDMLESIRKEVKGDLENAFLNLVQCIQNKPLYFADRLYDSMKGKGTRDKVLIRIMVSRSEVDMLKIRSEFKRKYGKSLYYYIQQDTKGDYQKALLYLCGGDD
smiles,measurement,setting,value
CC1=C(CO)C(=O)OC([C@@H](C)C2CCC3C4C[C@H]5O[C@]56[C@@H](O)C=CC(=O)[C@]6(C)C4CC[C@@]32C)C1 (stereo partly drawn) [Withaferin A],heat shock reporter induction,[1],response can be induced at compound exposures compatible with cell survival
same,binding to annexin II,[2],binds stably and selectively to annexin II
same,reduction in cell death of motor neurons plated in the absence of BDNF,[3]; 200 nM (0.2 μM),50%
same,reduction in cell death of motor neurons plated in the absence of BDNF,[3]; 400 nM (0.4 μM),75%
same,neurite growth of motor neurons,[3]; FIG. 12D,induces the growth of neurites
same,"inhibition of tumor cell growth in vitro, CHP-100",[4],inhibit tumor growth in Ewing's sarcoma

# Reference: patent US20170066797A1, “WITHAFERIN A ANALOGS AND USES THEREOF” (Whitehead Institute for Biomedical Research, priority 2008, published 2017)
